Experimental data as given in PMC8896310 (Cell, 2022).

Tests used:
BVU_0767 = target: T1, BVU_0767 (Phocaeicola vulgatus, UniProt A6KYF7); experiment: DTNB thioesterase assay, […] nm; assay type: biochemical; conditions: 100 uM acyl-CoA, 25 nM enzyme, 60 mM potassium phosphate pH 7.4, 37 C
T1 sequence (A6KYF7 1-137): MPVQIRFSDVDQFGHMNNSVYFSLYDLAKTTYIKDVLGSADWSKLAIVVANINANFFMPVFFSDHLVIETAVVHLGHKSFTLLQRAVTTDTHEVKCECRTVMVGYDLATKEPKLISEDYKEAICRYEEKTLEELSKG

BT_3942 = target: T2, BT_3942 (Bacteroides thetaiotaomicron, UniProt Q8A0S9); experiment: DTNB thioesterase assay, […] nm; assay type: biochemical; conditions: 100 uM acyl-CoA, 25 nM enzyme, 60 mM potassium phosphate pH 7.4, 37 C
T2 sequence (Q8A0S9 1-145): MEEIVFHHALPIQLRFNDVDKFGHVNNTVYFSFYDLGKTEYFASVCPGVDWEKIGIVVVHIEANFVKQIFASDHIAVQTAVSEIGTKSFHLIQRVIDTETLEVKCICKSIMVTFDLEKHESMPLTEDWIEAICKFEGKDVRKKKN

Row | SMILES | DTNB thioesterase assay, 412 nm (BVU_0767) | DTNB thioesterase assay, 412 nm (BT_3942)
1 | CCC(=O)SCCNC(=O)CCNC(=O)[C@H](O)C(C)(C)COP(=O)(O)OP(=O)(O)OC[C@H]1O[C@@H](n2cnc3c(N)ncnc32)[C@H](O)[C@@H]1OP(=O)(O)O [propionyl-CoA] | different substrate specificity for hydrolysis of short chain lengths of Acyl-CoAs and propionyl- and butyryl-CoA | different substrate specificity for hydrolysis of short chain lengths of Acyl-CoAs and propionyl- and butyryl-CoA
2 | CCCC(=O)SCCNC(=O)CCNC(=O)[C@H](O)C(C)(C)COP(=O)(O)OP(=O)(O)OC[C@H]1O[C@@H](n2cnc3c(N)ncnc32)[C@H](O)[C@@H]1OP(=O)(O)O [butyryl-CoA] | different substrate specificity for hydrolysis of short chain lengths of Acyl-CoAs and propionyl- and butyryl-CoA | 
